Data taken from paper PMC10762078, “Role of UPF1-LIN28A interaction during early differentiation of pluripotent stem cells” (Nature Communications, 2024).
Entries after “also recorded” stand apart in the source; their conditions may differ. Ends that are not written are not given here.

Experiments:
Format in all cases: cell-based, human
[1] = tested on: let-7a, let-7g, miR-16-5p and their targets in CHA15 cells; test: RT-qPCR of mature LIN28A-regulated miRNAs and CDF of let-7-5p / miR-16-5p target mRNAs (Supplementary Fig. 6f); set-up: key to let-7a level (RT-qPCR): relative level normalised to U6 snRNA; details: for let-7a level (RT-qPCR): Fig. s6f, dot plots, CHA15 cells
Method: cDNA was synthesised using RevertAid Reverse Transcriptase (Thermo Fisher Scientific, EP0441) with synthesised random hexamer (Macrogen) for total RNA or stem-loop primers for miRNA. For RT-qPCR reactions, the SensiFAST SYBR No-ROX kit (Meridian Bioscience) was used according to the manufacturer’s protocol. All data analysis and visualisation were conducted using R 3.6.1 [www.r-project.org] or GraphPad Prism 10. RT primers for miRNA and RT-qPCR primer sequences are provided in Supplementary Data 6.
Genes regulated by miRNA let-7-5p and miR-16-5p were determined by TargetScanHuman. Among miRNA targets sorted by cumulative weighted context++ score (CWCS)[57], the 100 top genes were selected and analysed using CDF. […]
Scatter
(bottom panel), respectively. f Levels of m ature endogenous m iRNAs in CHA15 cells, which were regulated by LIN28A, were assessed using RT -qPCR. Cum ulative f raction of log2 fold change in the expression of genes regulated by let-7-5p and m iR-16- 5p was shown as CDF graphs. T he relative level of m RNA was norm alised to that of U6 snRNA in (c, d, and f). K–S tests were used for e and f. Unpaired Student’s t-test was used for c , d, and f . * p < 0.05, ** p < 0.01, *** p < 0.001. Exact p -values were provided in Source data. Data are presented as m ean values ± SEM. All statistical test used were two- sided. T he m inim um num ber of independent biological replicate experim ents was a and e n = 2, b–d and f n = 3. T he experim ents were conducted three tim es, each iteration producing consistent results.

p-UPF1 (Ser1096) = test: Western blot of p-UPF1 (Ser1096) in CPP-peptide-treated hPSCs; details: for p-UPF1 (Ser1096)/Calnexin, mean: relative to CPP-P1 = 100, n = 3
Method: (§1) For CPP-conjugated peptide delivery, HeLa, 293T, and PA-1 cells were incubated with CPP-conjugated peptides or CPP-FITC at 2 μM in DMEM with 10% FBS for 12 h a day before cell harvest. hPSCs were treated with CPP-conjugated peptides at 10 μM in mTeSR Plus Medium, and the peptide-containing medium was changed every day over 10 days. The ROCK inhibitor (Tocris Bioscience, Y-27632) treated-hPSCs were dissociated into single cells using Accutase (Merck, SCR005) and differentiated into ectoderm, mesoderm, and endoderm using the STEMdiff Trilineage Differentiation Kit ([…] Technologies, 05230) following the manufacturer’s protocol. Differentiated cells treated with CPP-conjugated peptides were analysed at 0, 3, and 5 days for ectoderm and endoderm, and at 0, 3, and 4 days for mesoderm.
Protein samples were loaded for electrophoresis on sodium dodecyl sulphate (SDS) polyacrylamide gels, followed by Coomassie blue staining or transferred to nitrocellulose membranes (Cytiva) for WB. After blocking with 5% non-fat milk (Cellconic) in Tris-buffered saline with Tween-20 for 30 min at room temperature, the membranes were incubated with the following primary antibodies: anti-FLAG (GenScript, A00187; 1:2000), UPF1 (Cell Signaling Technology, 12040; 1:4000), UPF2 (Cell Signaling Technology, 11875; 1:2000), eIF4E (Cell Signaling Technology, 2067; 1:2000), β-actin (Sigma-Aldrich, A2228; 1:4000), GST (Cytiva, 27-4577-01; 1:2000), MYC (Calbiochem, OP10; 1:2000), Calnexin (Cell Signaling Technology, 2679; 1:4000), LIN28A (Cell Signaling Technology, 3978; 1:2000), pSer1096 phosphorylated UPF1 (1:2000)[58], or p-Thr28 phosphorylated UPF1 (ImmuQuest, IQ653; 1:2000). Primary antibodies were incubated overnight at 4 °C and then washed thrice with TBS-T, followed by incubation with secondary antibodies: Goat anti-Rabbit IgG (Invitrogen, 31460; 1:4000), Goat anti-Mouse IgG (Invitrogen, 31430; 1:4000), or Horse anti-Goat IgG (Vector Laboratories, PI-9500; 1:4000) for 1 h at room temperature. For pull-downed protein detection, all primary and secondary antibodies were diluted at 1:10,000. The blots were imaged using ChemiDoc XRS+ System (Bio-Rad) and the greyscale intensity values were quantified using Image Lab 3.0 software (Bio-Rad).
DAPI FITC Merge DAPI FITC Merge CHA15 H9 Pro2 H9
No peptide CPP-FITC Calnexin
For 2-day treatm ent For 4-day treatm ent […]
Student’s t-test was used. Data are presented as m ean values ± S.D (b) and mean values ± SEM (c and d). All statistical test us ed wer e two-s ided. T he m inim um num ber of independent biological replicate experim ents was a, b, and d n = 3, c n = 5. T he experim ents wer e conducted three tim es, each iteration producing consistent results. […]

CHA15 cells = test: Immunostaining of SOX1, DLK1 and LHX2 during ectodermal differentiation (Fig. 7b); details: for DLK1 fluorescence quantification, mean / LHX2 fluorescence quantification, mean / SOX1 fluorescence quantification, mean: mean of set1-set4
Method: as §1
hPSCs or differentiated cells were fixed in 4% paraformaldehyde (Sigma-Aldrich). After 15–20 min, the cells were washed with 0.1% bovine serum albumin in phosphate-buffered saline (BSA/PBS) thrice and blocked for 1 h by adding 0.3% Triton X-100 (Sigma-Aldrich) and 10% normal goat serum (NGS; Fitzgerald industries, NG22S). After blocking, cells were incubated with the following primary antibodies: anti-UPF1 (Cell Signaling Technology, 12040; 1:500), LIN28A (Cell Signaling Technology, 3978; 1:500), OCT4 (Santa Cruz, sc-5279; 1:500), NANOG (Cell Signaling Technology, 4903; 1:500), DLK1 (GeneTex, GTX60511; 1:500), SOX1 (Cell Signaling Technology, 4194; 1:500), or LHX2 (GeneTex, GTX129241; 1:500). Primary antibodies were incubated overnight at 4 °C followed by incubation with the following secondary antibodies: Cy3 (Jackson ImmunoResearch, 115-165-146; 1:500) or Alexa Fluor 488 (Invitrogen, A-11008; 1:500) followed by the incubation with secondary fluorescence-conjugated antibodies for 1 h. The cells were mounted in […] with DAPI mounting medium (Vector Laboratories, H1200).
Immunofluorescence staining, proximity ligation assay imaging, and cell-penetrating efficiency of CPP-FITC were imaged with a confocal laser scanning microscope (Leica, TSC SP5) or immunofluorescence microscope (Leica, DM5000B). Z-stacks were captured, with sections spanning the entire cell. The LAS X Life Science program was used to obtain the maximum intensity projections and cross-sections of the confocal images.

[2] = ectodermal differentiation, CHA15
[3] = Fig 7b, vs. P1, ± SEM, unpaired t test, df=6

| Substance | LIN28A-regulating miRNAs and their target mRNAs ([1]; CHA15) | phosphorylated UPF1 (p-UPF1 (Ser1096); CHA15 and Pro2 cells, 10 μM) | p-UPF1 levels after longer treatment (p-UPF1 (Ser1096); H9, 4-day treatment) | p-UPF1 levels (p-UPF1 (Ser1096); H9 cells, short treatment, 10 μM) | DLK1 and LHX2 expression (CHA15 cells; [2]) | SOX1 expression (CHA15 cells; [2]) | let-7a level (RT-qPCR) ([1]; replicate 1) | let-7a level (RT-qPCR) ([1]; replicate 2) | let-7a level (RT-qPCR) ([1]; replicate 3) | p-UPF1 (Ser1096)/Calnexin, mean (p-UPF1 (Ser1096); CHA15, 2-day treatment) [%] | p-UPF1 (Ser1096)/Calnexin, mean (p-UPF1 (Ser1096); H9, 2-day treatment) [%] | p-UPF1 (Ser1096)/Calnexin, mean (p-UPF1 (Ser1096); H9, 4-day treatment) [%] | p-UPF1 (Ser1096)/Calnexin, mean (p-UPF1 (Ser1096); Pro2, 2-day treatment) [%] | DLK1 fluorescence quantification, mean (CHA15 cells; Fig 7b) | LHX2 fluorescence quantification, mean (CHA15 cells; Fig 7b) | SOX1 fluorescence quantification, mean (CHA15 cells; Fig 7b) | DLK1 fluorescence quantification, difference between means ± SEM (CHA15 cells; [3]) | LHX2 fluorescence quantification, difference between means ± SEM (CHA15 cells; [3]) | SOX1 fluorescence quantification, difference between means ± SEM (CHA15 cells; [3]) |
| --- | --- | --- | --- | --- | --- | --- | --- | --- | --- | --- | --- | --- | --- | --- | --- | --- | --- | --- | --- |
| KKKWCRKKKSSADEKRYRALKRTAERELLMNA [CPP-P8, CPP conjugated to P8] | did not alter the expression of LIN28A-regulating miRNAs and their target mRNAs | increased phosphorylated UPF1 in CHA15 and Pro2 cells; also recorded: upregulation of p-UPF1 in CHA15 and Pro2 cells | upregulates the levels of p-UPF1 | did not elicit a corresponding increase in p-UPF1 levels in H9 cells | increased DLK1 and LHX2 expression | abrogated SOX1 expression | – | – | – | – | – | – | – | – | – | – | – | – | – |
| KKKWCRKKKSSADEKRYRALKRTAERELLMNA [P8] | – | – | – | – | – | – | 0.9027 | 0.8569 | 0.8754 | 203 | 91 | 226 | 244 | 98 | 65.64 | 40.11 | 67.91 ± 4.905 | 30.85 ± 5.040 | -20.06 ± 8.048 |
| N-MPELQKLQQLKDE-C [P2, peptide derived from the UPF1 (419–700) domain] | – | – | – | – | – | – | 0.9342 | 0.9709 | 0.9188 | – | – | – | – | – | – | – | – | – | – |
| N-QKLDQKELQLEPM-C [P1, reference compound] | – | – | – | – | – | – | 0.8272 | 1.208 | 0.9649 | 100 | 100 | 100 | 100 | 30.09 | 34.79 | 60.17 | – | – | – |
